According to US10526323B2, “Indazole and azaindazole substituted compounds as mGluR4 allosteric potentiators, compositions, and methods of treating neurological dysfunction” (Vanderbilt University, priority 2015, dated 2020):

target: mGluR4 (UniProt Q14833); assay: mGluR4 potentiation assay: increase in response to an EC20 concentration of agonist (species not given); type: cell-based; settings: EC50 for potentiation of mGluR4; table does not state human or rat
Description: The disclosed compounds and compositions can be evaluated for their ability to act as a potentiator of metabotropic glutamate receptor activity, in particular mGluR4 activity, by any suitable known methodology known in the art. For example, Chinese Hamster Ovary (CHO) cells transfected with human mGluR4 or […] co-transfected with rat mGluR4 and the G-protein regulated Inwardly Rectifying Potassium channel (GIRK) were plated in clear bottom assay plates for assay in a Hamamatsu FDSS Fluorometric Plate Reader. The cells were loaded with either a Ca2+-sensitive fluorescent dye or the thallium responsive dye and the plates were washed and placed into a suitable kinetic plate reader. For human mGluR4 assays, a fluorescence baseline was established for 3-5 seconds, the disclosed compounds were then added to the cells, and the response in cells was measured. Approximately two and a half minutes later, a concentration of mGluR4 orthosteric agonist (e.g. glutamate or L-AP4) eliciting approximately 20% (EC20) of the maximal agonist response was added to the cells, and the response was measured. Two minutes later, a concentration of mGluR4 agonist (e.g. glutamate or L-AP4) eliciting 80% (EC80) of the maximal agonist response was added to the cells, and the response was measured. For rat mGluR4/GIRK experiments, a baseline was established for approximately five seconds, disclosed compounds were added, and either an EC20 or EC80 concentration of agonist was added approximately two and one half minutes later. Potentiation of the agonist response of mGluR4 by the disclosed compounds was observed as an increase in response to the EC20 concentration of agonist in the presence of compound compared to the response to agonist in the absence of compound. Similarly, antagonism of the agonist response of mGluR4 by the disclosed compounds was observed as a decrease in response to the EC80 concentration of agonist in the presence of compound compared to the response to agonist in the absence of compound.
The above described assay operated in two modes. In the first mode, a range of concentrations of the disclosed compounds are added to cells, followed by a single fixed concentration of agonist. If the compound acts as a potentiator, an EC50 value for potentiation and a maximum extent of potentiation by the compound at this concentration of agonist is determined by non-linear curve fitting. If the compound acts as a noncompetitive antagonist, an IC50 value is determined by non-linear curve fitting. In the second mode, several fixed concentrations of the disclosed compounds are added to various wells on a plate, followed by a range in concentrations of agonist for each concentration of disclosed compound. The EC50 values for the agonist at each concentration of compound are determined by non-linear curve fitting. A decrease in the EC50 value of the agonist with increasing concentrations of the sample compound (a leftward shift of the agonist concentration-response curve) is an indication of the degree of mGluR4 potentiation at a given concentration of the sample compound. A decrease in the maximal response of the agonist with increasing concentrations of the sample compounds, with or without a rightward shift in agonist potency, is an indication of the degree of noncompetitive antagonism at mGluR4. The second mode also indicates whether the sample compounds also affect the maximum response to mGluR4 to agonists.
These compounds are positive allosteric modulators (potentiators) of human and rat mGluR4 and were selective for mGluR4 compared to the other seven subtypes of metabotropic glutamate receptors.

Compound | EC50 [nM]
Cn1nc(O)c2ccc(Nc3n[nH]c4cccnc34)cc21 [Example 37, 6-((1H-pyrazolo[4,3-b]pyridin-3-yl)amino)-1-methyl-1H-indazol-3-ol] | 3150
COC(=O)CCCNc1nn(C)c2cc(Nc3n[nH]c4cccnc34)ccc12 [Example 38, methyl 4-((6-((1H-pyrazolo[4,3-b]pyridin-3-yl)amino)-1-methyl-1H-indazol-3-yl)amino)butanoate] | 263
Cn1nc(N2CC(C)(C3CC3)CC2=O)c2ccc(Nc3n[nH]c4cccnc34)cc21 (centres unmarked) [Example 39, 1-(6-((1H-pyrazolo[4,3-b]pyridin-3-yl)amino)-1-methyl-1H-indazol-3-yl)-4-cyclopropyl-4-methylpyrrolidin-2-one] | 765
C=C(c1nn(C)c2cc(Nc3n[nH]c4cccnc34)ccc12)C(F)(F)F [Example 40, N-(1-methyl-3-(3,3,3-trifluoroprop-1-en-2-yl)-1H-indazol-6-yl)-1H-pyrazolo[4,3-b]pyridin-3-amine] | 147
Cn1nc(N2CC(C)(C3CC3)CC2=O)c2ccc(Nc3n[nH]c4ccccc34)cc21 (centres unmarked) [Example 41, 1-(6-((1H-indazol-3-yl)amino)-1-methyl-1H-indazol-3-yl)-4-cyclopropyl-4-methylpyrrolidin-2-one] | 1420
CC1CCC(=O)N1c1nn(C)c2cc(Nc3n[nH]c4cccnc34)ccc12 (centres unmarked) [Example 42, 1-(6-((1H-pyrazolo[4,3-b]pyridin-3-yl)amino)-1-methyl-1H-indazol-3-yl)-5-methylpyrrolidin-2-one] | 4000
[2H]C([2H])([2H])n1nc(C2CC2)c2ccc(Nc3n[nH]c4ncccc34)cc21 [Example 43, N-(3-cyclopropyl-1-(methyl-d3)-1H-indazol-6-yl)-1H-pyrazolo[3,4-b]pyridin-3-amine] | 160
CC(C)Oc1nn(C)c2cc(Nc3n[nH]c4cccnc34)ccc12 [Example 44, N-(3-isopropoxy-1-methyl-1H-indazol-6-yl)-1H-pyrazolo[4,3-b]pyridin-3-amine] | 413
Cc1cc(COc2nn(C)c3cc(Nc4n[nH]c5cccnc45)ccc23)on1 [Example 45, N-(1-methyl-3-((3-methylisoxazol-5-yl)methoxy)-1H-indazol-6-yl)-1H-pyrazolo[4,3-b]pyridin-3-amine] | 104
CC(c1nn(C)c2cc(Nc3n[nH]c4cccnc34)ccc12)C(F)(F)F (centres unmarked) [Example 46, N-(1-methyl-3-(1,1,1-trifluoropropan-2-yl)-1H-indazol-6-yl)-1H-pyrazolo[4,3-b]pyridin-3-amine] | 215
COc1ccc2[nH]nc(Nc3ccc4c(C5CC5)nn(C)c4c3)c2c1 [Example 47, N-(3-cyclopropyl-1-methyl-1H-indazol-6-yl)-5-methoxy-1H-indazol-3-amine] | > 10000
Cc1ccccc1Cc1nn(C)c2cc(Nc3n[nH]c4cccnc34)ccc12 [Example 48, N-(1-methyl-3-(2-methylbenzyl)-1H-indazol-6-yl)-1H-pyrazolo[4,3-b]pyridin-3-amine] | 4400
Cc1ccccc1Cc1nn(C)c2cc(Nc3n[nH]c4nccnc34)ccc12 [Example 49, N-(1-methyl-3-(2-methylbenzyl)-1H-indazol-6-yl)-1H-pyrazolo[3,4-b]pyrazin-3-amine] | 4600
Cc1cc(Nc2n[nH]c3cccnc23)cc2c1cnn2C [Example 50, N-(1,4-dimethyl-1H-indazol-6-yl)-1H-pyrazolo[4,3-b]pyridin-3-amine] | 323
Cc1cc(Nc2n[nH]c3nccnc23)cc2c1cnn2C [Example 51, N-(1,4-dimethyl-1H-indazol-6-yl)-1H-pyrazolo[3,4-b]pyrazin-3-amine] | 150
COc1cc(Nc2n[nH]c3cccnc23)cc2c1cnn2C [Example 52, N-(4-methoxy-1-methyl-1H-indazol-6-yl)-1H-pyrazolo[4,3-b]pyridin-3-amine] | 718
COc1cc(Nc2n[nH]c3nccnc23)cc2c1cnn2C [Example 53, N-(4-methoxy-1-methyl-1H-indazol-6-yl)-1H-pyrazolo[3,4-b]pyrazin-3-amine] | 247
